Patent US20040132108A1, “Screening methods and agents” (priority 2001, published 2004)
Entries after “also recorded” stand apart in the source; their conditions may differ.

Legend:
full-length p300 protein = biological target: T1, full-length p300 protein (Homo sapiens, UniProt Q09472); test: ELISA binding of full-length p300 to biotinylated peptides; conditions: biotinylated peptide titrated onto streptavidin-coated wells
T1 construct: Full-length p300 and p300(1135-2414) baculovirus were a gift from N. B. La Thangue; made in house; host or cells: Sf9 insect cells (baculovirus)
T1 sequence (Q09472 whole entry): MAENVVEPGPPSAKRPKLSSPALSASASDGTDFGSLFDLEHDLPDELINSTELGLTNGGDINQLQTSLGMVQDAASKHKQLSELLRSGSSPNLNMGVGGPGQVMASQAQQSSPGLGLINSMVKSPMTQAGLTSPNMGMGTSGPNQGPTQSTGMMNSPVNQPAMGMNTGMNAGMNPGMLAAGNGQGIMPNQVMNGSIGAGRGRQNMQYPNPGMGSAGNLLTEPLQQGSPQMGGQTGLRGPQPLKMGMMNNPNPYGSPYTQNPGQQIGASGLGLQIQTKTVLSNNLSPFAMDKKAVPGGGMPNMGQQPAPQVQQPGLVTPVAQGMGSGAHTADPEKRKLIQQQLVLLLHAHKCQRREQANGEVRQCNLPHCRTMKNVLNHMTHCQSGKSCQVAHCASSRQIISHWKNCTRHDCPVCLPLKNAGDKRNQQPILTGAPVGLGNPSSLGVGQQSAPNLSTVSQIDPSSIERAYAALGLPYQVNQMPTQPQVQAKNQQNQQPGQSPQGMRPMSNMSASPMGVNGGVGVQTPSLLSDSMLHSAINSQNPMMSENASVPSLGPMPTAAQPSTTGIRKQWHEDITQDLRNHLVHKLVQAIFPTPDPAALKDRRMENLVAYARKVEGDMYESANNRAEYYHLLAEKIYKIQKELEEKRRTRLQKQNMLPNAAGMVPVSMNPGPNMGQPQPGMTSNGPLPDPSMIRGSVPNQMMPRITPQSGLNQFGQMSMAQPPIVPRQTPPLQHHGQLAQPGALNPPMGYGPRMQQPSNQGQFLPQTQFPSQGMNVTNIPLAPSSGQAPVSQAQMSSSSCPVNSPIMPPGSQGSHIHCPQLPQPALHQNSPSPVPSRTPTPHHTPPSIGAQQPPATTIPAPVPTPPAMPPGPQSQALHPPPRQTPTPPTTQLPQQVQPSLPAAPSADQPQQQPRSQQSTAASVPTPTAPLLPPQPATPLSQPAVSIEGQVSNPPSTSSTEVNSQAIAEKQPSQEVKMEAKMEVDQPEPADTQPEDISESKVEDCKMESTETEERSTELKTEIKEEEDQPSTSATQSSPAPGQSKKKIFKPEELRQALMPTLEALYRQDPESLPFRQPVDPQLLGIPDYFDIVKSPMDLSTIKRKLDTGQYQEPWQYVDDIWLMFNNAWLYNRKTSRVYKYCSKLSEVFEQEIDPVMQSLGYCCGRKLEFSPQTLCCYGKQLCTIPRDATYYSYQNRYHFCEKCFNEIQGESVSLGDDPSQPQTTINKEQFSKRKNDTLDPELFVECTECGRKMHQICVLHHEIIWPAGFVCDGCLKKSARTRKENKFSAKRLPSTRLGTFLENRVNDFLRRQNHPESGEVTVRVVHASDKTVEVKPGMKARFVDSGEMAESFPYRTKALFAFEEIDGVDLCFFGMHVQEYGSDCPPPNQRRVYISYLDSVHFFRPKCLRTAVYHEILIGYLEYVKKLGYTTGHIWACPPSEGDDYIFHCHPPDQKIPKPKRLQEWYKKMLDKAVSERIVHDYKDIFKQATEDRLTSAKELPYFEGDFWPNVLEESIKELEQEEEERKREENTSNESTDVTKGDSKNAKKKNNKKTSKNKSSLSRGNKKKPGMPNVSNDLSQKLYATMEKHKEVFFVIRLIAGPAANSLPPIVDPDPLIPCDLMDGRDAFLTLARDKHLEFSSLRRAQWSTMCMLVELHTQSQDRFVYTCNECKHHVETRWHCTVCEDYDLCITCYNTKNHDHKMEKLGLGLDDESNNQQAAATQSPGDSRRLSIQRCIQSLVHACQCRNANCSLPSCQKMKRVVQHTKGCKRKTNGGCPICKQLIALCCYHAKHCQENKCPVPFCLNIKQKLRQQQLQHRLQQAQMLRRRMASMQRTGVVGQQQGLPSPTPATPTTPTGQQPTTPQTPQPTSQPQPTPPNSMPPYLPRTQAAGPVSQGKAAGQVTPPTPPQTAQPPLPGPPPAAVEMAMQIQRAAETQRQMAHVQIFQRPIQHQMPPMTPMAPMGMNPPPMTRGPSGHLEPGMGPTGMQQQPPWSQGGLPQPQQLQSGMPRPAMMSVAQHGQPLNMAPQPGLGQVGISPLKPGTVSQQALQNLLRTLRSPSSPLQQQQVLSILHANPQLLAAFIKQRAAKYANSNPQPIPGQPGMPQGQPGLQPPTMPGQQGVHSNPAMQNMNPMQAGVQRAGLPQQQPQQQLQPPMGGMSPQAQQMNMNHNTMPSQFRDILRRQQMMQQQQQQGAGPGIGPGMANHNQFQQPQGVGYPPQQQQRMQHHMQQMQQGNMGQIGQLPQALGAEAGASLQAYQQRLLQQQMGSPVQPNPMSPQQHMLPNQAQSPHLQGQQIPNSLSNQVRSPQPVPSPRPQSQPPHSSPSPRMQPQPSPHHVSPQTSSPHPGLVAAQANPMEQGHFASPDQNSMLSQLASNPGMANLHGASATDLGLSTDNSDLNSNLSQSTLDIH
Protocol: Microtitre wells were coated with 100 ng of streptavidin and incubated overnight at room temperature. To prevent non-specific binding, 100 μl of 3% BSA, PBS, 01% Tween 20 was added and incubated for 1 hour at 4° C. Wells were washed 3 times with 180 μl PBSM 0.1% Tween 20 and biotinylated peptides, resuspended in 50 μl/well of 3% BSA, PBS, 0.1% Tween 20/NaF/Beta-phosphoglycerate, were incubated for 1 hour at 4° C. Non-specific binding sites were blocked by adding 180 μl 5% milk powder, PBS, 0.1 Tween 20/NaF/Beta-phosphoglycerate for 30 minutes at 4° C. before adding p300 resuspended in 50 ml/well of Sf9LB. Where plant extract was added to p300, the reaction was incubated for 30 minutes before adding to wells. The reaction was the incubated for 1 hour at 4° C. and then the wells were rigorously washed 3 times with 180 μl PBS, 0.1%, Tween 20 before incubating for 1 hour with specific antibodies in 50 μl/well 5% milk powder, PBS, 0.1% Tween 20/NaF/Beta-phosphoglycerate. Wells were given another 3 washes with PBS, 0.1%, Tween 20 to remove unbound antibody and specific binding was detected with secondary antibody (anti-mouse or anti-rabbit) conjugated to horse radish peroxidase (HRP). The binding was detected by ECL and quantified using a luminometer (Fluoroskan Ascent FL).
Plates were rigorously washed 3 times with PBST20 (0.1% v/v) to reduce the non-specific binding. Primary antibodies anti-p300(N-15) (Santa Cruz Biotechnology Inc.), anti-FLAG (Sigma) and anti-Mdm2 (2A10) (Movarian Biotechnologies) were used and the appropriate secondary antibody cross-linked to HRP. The signal detected by Enhanced Chemoluminescence was developed using Fluoroskan Ascent FL.

[1] = test system: p300 induction of p53-dependent gene expression from the bax promoter; test: p53/p300 co-transfected Saos-2 cells, bax-Luc reporter; assay type: cell-based; conditions: Saos-2 cells co-transfected with p53 and p300, increasing EGFP construct
Protocol: FIG. 5: In vivo inhibition of ectopically expressed p53 activity from the bax promoter by phospho-peptide mimetic fusion proteins. (A) Stimulation of p53 activity by cotransfection with p300. Saos-2 cells were transiently co-transfected with 1 μg of pCMV-p53, 2 μg bax-Luc, 1 μg pCMVβ-Gal and increasing amounts of pCMV-βp300. The cells were harvested 30 hours post-transfection and the relative activity is expressed as a ratio of luciferase activity to β-Gal activity. (B) EGFP-S20D peptide fusion protein inhibits p300 induction of p53-dependent gene expression. Saos-2 cells were transiently co-transfected with 1 μg pCMV-p53, 2 μg bax-Luc, 5 μg pCMVβp300, 1 μg of pCMVβ-Gal and increasing amounts of EGFP-S20D or EGFP-control. Cells were harvested 30 hours post-transfection and relative activity is expressed as a ratio of luciferase activity to β-Gal activity ( ? control, 0 μg, 1 μg, 2 μg and 5 μg).
(§1) A final model used to examine whether the phospho-peptide mimetic peptides inhibit p53 activity involved the use of the p53-null cell line Saos-2 co-transfected with p300, p53, and the indicated reporter or expression vectors (FIG. 3). Transient co-transfection of increasing amounts of p300 with p53 into Saos-2 cells lead to maximal stimulation of p53-dependent gene expression from the p21 promoter (FIG. 3A) or the bax promoter (FIG. 5A).
A375 and Saos-2 cells were maintained in DMEM (Gibco BRL) supplemented with 10% FBS and incubated at 37° C. with an atmosphere of 10% CO2. Transient transfections and ELISAs were carried out as previously described (Dornan and Hupp 2001). Full-length p300 and His-p300 infected Sf9 cells were harvested 72 hours post-infection as described previously (Shikama, Lee et al. 1999; Dornan and Hupp 2001). Sf9 expressed wtp53 and p53ΔProAE tetramers were purified by heparin-sepharose chromatography as described previously (Hupp and Lane 1994). […] The signal detected by Enhanced Chemo-luminescence was developed using autoradiography film (Amersham).

HCT116 (p53^+/+) cells = test: Cell cycle profile by FACS in HCT116 p53+/+ cells; assay type: cell-based; conditions: 5 μg EGFP construct, CD20-selected cells, propidium iodide
Description: To address this issue, we co-transfected EGFP-NS, EGFP-BOXI, EGFP-S20D or EGFP-PRO with pCMV-CD20 cell surface marker into HCT116 (p53^+/+) cells, selected the transfected population using a FITC-conjugated CD20 antibody, sorted them by FACS and the resultant cell cycle profile of the transfected population determined by propidium iodide staining of DNA. The amount of EGFP-peptide construct and levels of EGFP protein produced were identical to those used in transcription assays (FIG. 10 and data not shown), so a direct correlation can be made between the reduction in transcription by the EGFP-S20D or EGFP-PRO peptides and changes in cell-cycle parameters. […] The MDM2-binding peptides have been well-documented to have a positive affect on […] dependent transcription (Bottger, Bottger et al. 1996).
(§2) To select the transfected cell population, cells were co-transfected with 3 μg pCMV-CD20 and incubated for 24 hours before washing and detaching cells in PBS/5 mM EDTA. Cells were then harvested and resuspended in serum free media with FITC-conjugated anti-CD20 (Becton Dickinson) and incubating for 30 minutes on ice. Cells were then washed twice with PBS/1% FBS and resuspended in 100 μl PBS before adding 900 μl ice-cold ethanol dropwise. After incubation at 4° C. for >2 hours cells were stained with Pi (40 μg/ml) and treated with RNAse (100 μg/ml). Transfected cells were gated using the FL1 channel and PI staining detected with the FL2 channel and the resultant cell cycle profiles of 2000 cells were analysed using a FACScan and CellQuest software (Becton Dickinson).

HCT116 p53^−/− cells = test: Cell cycle profile by FACS in HCT116 p53-/- cells; assay type: cell-based; conditions: 5 μg EGFP construct, CD20-selected cells, propidium iodide
Protocol: With the arrest in G2/M observed in p53^+/+ cells using the PRO and S20D fusion peptides, it was determined whether the peptides would have any effect on the cell cycle profile in a p53^−/− cell line. Using the same parameters as in the p53^+/+ cell line, the effects on the cell cycle were determined (FIGS. 12B and 12D).
as §2

[2] = test system: p300 induction of p53-dependent gene expression from the p21 promoter; test: p53/p300 co-transfected Saos-2 cells, p21-Luc reporter; assay type: cell-based; conditions: for p53-p300 co-stimulated transactivation, p21 promoter: Saos-2 cells co-transfected with p53 and p300, increasing EGFP construct; for p53 protein levels (immunoblot): Saos-2 cells, 1 μg EGFP construct, relative to EGFP-NS control
Protocol: FIG. 3: In vivo inhibition of ectopically expressed p53 from the p21 promoter by phospho-peptide mimetic fusion proteins. (A) Stimulation of p53 activity by cotransfection with p300. Saos-2 cells were transiently co-transfected with 1 μg of pCMV-p53, 2 μg p21-Luc, 1 μg pCMVβ-Gal and increasing amounts of pCMV-βp300. The cells were harvested 30 hours post-transfection and the relative activity is expressed as a ratio of luciferase activity to β-Gal activity (Δ negative control, 0 ng, 1 μg, 2 μg and 5 μg). (B) EGFP-S20D peptide ([…] LPENN) inhibits p300 induction of p53-dependent gene expression. Saos-2 cells were transiently co-transfected with 1 μg pCMV-p53, 2 μg p21-Luc, 5 μg pCMVβp300, 1 μg of pCMVβ-Gal and increasing amounts of EGFP-constructs as indicated. The cells were processed as described in the legend of FIG. 3A (▴ control, control, 1 μg, 2 μg and 5 μg). (C) Immunoblots of p53 and EGFP-fusion proteins in transfected Saos-2 cells. Lysates from transfected Saos-2 cells [as described in FIG. 3B] were normalized for protein content by Bradford and loading for immunoblots was confirmed by Red Ponceau staining. The constructs transfected are highlighted by the legend above the Figure (increasing amounts of EGFP fused to NS, BOX-I, S15D, T18D, and S20D BOX-I domain peptides) and are described below the Figure as a “+”. The levels of p53, EGFP, and p21 proteins are in the top, middle, or bottom panel, respectively. p53-dependent activity (in RLU's) from FIG. 3B is listed underneath the immunoblots for direct comparison of p53 activity to p53 protein and EGFP protein levels.
as §1
A375 and Saos-2 cells were maintained in DMEM (Gibco BRL) supplemented with 10% FBS and incubated at 37° C. with an atmosphere of 10% CO2. Transient transfections and ELISAs were carried out as previously described (Dornan and Hupp 2001). Full-length p300 and His-p300 infected Sf9 cells were harvested 72 hours post-infection as described previously (Shikama, Lee et al. 1999; Dornan and Hupp 2001). Sf9 expressed wtp53 and p53ΔProAE tetramers were purified by heparin-sepharose chromatography as described previously (Hupp and Lane 1994). Transfected lysates were run on a 12% SDS-PAGE and transferred to nitrocellulose membrane and even protein loading confirmed by Ponceau S (Sigma) staining. Primary antibodies anti-p53 (DO-1), anti-p21 (Ab-1) (Calbiochem), anti-Bax (N-20) (Santa Cruz Biotechnology Inc.), anti-EGFP (Clontech) were used and the appropriate secondary antibody conjugated to HRP. The signal detected by Enhanced Chemo-luminescence was developed using autoradiography film (Amersham).

[3] = test system: p53-dependent transactivation of the p21 promoter; test: p21-Luciferase reporter of endogenous p53-dependent transcription in A375 cells; assay type: cell-based; conditions: for basal p53-dependent transactivation of the p21 promoter: cycling A375 cells, transient transfection, p21-Luc / β-Gal
Protocol: Proliferating A375 cells were transiently co-transfected with EGFP-NS, EGFP-BOX-I, EGFP-S15D, EGFP-T18D or EGFP-S20D and control or p21-Luciferase reporter constructs. Changes in the basal p53-dependent transcription activity was quantitated 24 hours post-transfection.
A375 and HCT116 cells both containing a wild-type p53 pathway were maintained in DMEM (Gibco BRL) supplemented with 10% FBS and incubated at 37° C. with an atmosphere of 10% CO2. For transient transfections, 3×10^5 cells were plated out in 6-well dishes and transfected with LipofectAMINE (Gibco BRL). The exact quantity of DNA transfected is indicated in each experiment and where necessary, carrier DNA was incorporated to keep the same quantity of DNA consistent in each transfecton. To monitor transfection efficiency, pCMV-βGal was included in each transfection. Unless otherwise stated, cells were harvested 24 hours post-transfection and lysed in Reporter Lysis Buffer and the corresponding luciferase and β-Gal assay carried out according to the manufacturers protocol (Promega, UK).

Substance	binding of full-length p300 protein to the peptide (RLU) (full-length p300 protein)	p53-p300 co-stimulated transactivation, bax promoter [1]	cell cycle effect (G2/M arrest) (HCT116 (p53^+/+) cells)	p53-p300 co-stimulated transactivation, p21 promoter [2]	basal p53-dependent transactivation of the p21 promoter [3]	further results
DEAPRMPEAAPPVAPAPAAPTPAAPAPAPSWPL [EGFP-PRO]	–	striking inhibition of p53-p300 co-stimulation	more striking arrest in G2/M phase	striking inhibition of p53-p300 co-stimulation	inhibit endogenous p53-dependent transcription compared to the EGFP-NS peptide and with the same potency as the EGFP-S20D peptide	cell cycle effect (G2/M arrest) (HCT116 p53^−/− cells): similarly induced a G2/M arrest
EPPLSQETFDDLWKL LPENN [EGFP-S20D]	–	inhibited synergism between p53 and p300; also recorded: inhibits transactivation	induced a prominent G2/M arrest	inhibited synergism between p53 and p300; also recorded: inhibits transactivation	inhibiting p53 activity to the highest degree	cell cycle effect (G2/M arrest) (HCT116 p53^−/− cells): failed to elicit a defined G2/M arrest; p53 protein levels (immunoblot) [2]: increased
EPPLSQETFSDLWKLLPENN [EGFP-BOX-I]	–	stimulated p53 activity	relatively insignificant role in altering cell-cycle parameters	stimulated p53 activity	expected increase in p53-dependent transactivation	p53 protein levels (immunoblot) [2]: increased; p53-dependent gene expression in irradiated cells ([3]; A375 cells, ionizing radiation (5 Gy) or UV-C (20 J/m^2), p21-Luc): stimulated p53 activity in the irradiated cell
UBF1 (321-336): consensus peptide from UBF1, amino acids 321-336 (STERMVLCSQQWKLLS; UniProt P17480 321-336, looked up, fragment)	affinity slightly less than the p53 BOX-I-Ser^20 phospho-peptide	–	–	–	–	–

Continued, in another order:

binding of full-length p300 protein to the peptide (RLU) (full-length p300 protein)	Substance	p53-p300 co-stimulated transactivation, bax promoter [1]	cell cycle effect (G2/M arrest) (HCT116 (p53^+/+) cells)	p53-p300 co-stimulated transactivation, p21 promoter [2]	basal p53-dependent transactivation of the p21 promoter [3]	further results
relatively high affinity	C-terminal end of the SMAD4 polyproline domain: peptide from the Smad-4 proline-rich region (aa 275-303), C-terminal end (PYTPNLPHHQNGHLQHHPPMPPHPGHYWP; UniProt Q13485 275-303, looked up, fragment)	–	–	–	–	–
did not bind p300	UBF1 (231-246): consensus peptide from UBF1, amino acids 231-246 (GKQWSQLSDKKRLKWI; UniProt P17480 231-246, looked up, fragment)	–	–	–	–	–
high affinity	p53 polyproline peptide (83-102): p53 polyproline peptide containing amino acids 83-102 (AAPAPAPSWPLSSSVPSQKT; UniProt P04637 83-102, looked up, fragment)	–	–	–	–	–
did not restore binding activity	p53PRO (69-88): p53 polyproline peptide amino acids 69-88 (AAPPVAPAPAAPTPAAPAPA; UniProt P04637 69-88, looked up, fragment)	–	–	–	–	–
